From article PMC13159774, “Functional Characterization of the Cat and Dog Wild‐Type and Mutant MDR1 Carrier Proteins and Frequency of the MDR1 Gene Mutation in 800 Cats From Germany” (Journal of Veterinary Pharmacology and Therapeutics, 2025)
Several values for one entry are separate records, joined by “and”; a condition that tells them apart may be missing. Identical values can stand only once. Entries after “also recorded” stand apart in the source; their conditions may differ. Like-named read-outs stand apart in the source and are kept apart here.

Legend:
[1] = target: dog MDR1 wt (canine MDR1 carrier) (Canis lupus familiaris, UniProt Q4PLA8); assay: Rh123 efflux inhibition (IC50) in stably transfected MDR1-HEK293 cells, dog MDR1 wt; settings: for IC50: IC50, inhibition of Rh123 efflux, dog MDR1 wt, 5 μM Rh123, HEK293 after tetracycline treatment, one value per independent experiment (two experiments)
Sequence of dog MDR1 wt (canine MDR1 carrier) (Q4PLA8 entry or part of it): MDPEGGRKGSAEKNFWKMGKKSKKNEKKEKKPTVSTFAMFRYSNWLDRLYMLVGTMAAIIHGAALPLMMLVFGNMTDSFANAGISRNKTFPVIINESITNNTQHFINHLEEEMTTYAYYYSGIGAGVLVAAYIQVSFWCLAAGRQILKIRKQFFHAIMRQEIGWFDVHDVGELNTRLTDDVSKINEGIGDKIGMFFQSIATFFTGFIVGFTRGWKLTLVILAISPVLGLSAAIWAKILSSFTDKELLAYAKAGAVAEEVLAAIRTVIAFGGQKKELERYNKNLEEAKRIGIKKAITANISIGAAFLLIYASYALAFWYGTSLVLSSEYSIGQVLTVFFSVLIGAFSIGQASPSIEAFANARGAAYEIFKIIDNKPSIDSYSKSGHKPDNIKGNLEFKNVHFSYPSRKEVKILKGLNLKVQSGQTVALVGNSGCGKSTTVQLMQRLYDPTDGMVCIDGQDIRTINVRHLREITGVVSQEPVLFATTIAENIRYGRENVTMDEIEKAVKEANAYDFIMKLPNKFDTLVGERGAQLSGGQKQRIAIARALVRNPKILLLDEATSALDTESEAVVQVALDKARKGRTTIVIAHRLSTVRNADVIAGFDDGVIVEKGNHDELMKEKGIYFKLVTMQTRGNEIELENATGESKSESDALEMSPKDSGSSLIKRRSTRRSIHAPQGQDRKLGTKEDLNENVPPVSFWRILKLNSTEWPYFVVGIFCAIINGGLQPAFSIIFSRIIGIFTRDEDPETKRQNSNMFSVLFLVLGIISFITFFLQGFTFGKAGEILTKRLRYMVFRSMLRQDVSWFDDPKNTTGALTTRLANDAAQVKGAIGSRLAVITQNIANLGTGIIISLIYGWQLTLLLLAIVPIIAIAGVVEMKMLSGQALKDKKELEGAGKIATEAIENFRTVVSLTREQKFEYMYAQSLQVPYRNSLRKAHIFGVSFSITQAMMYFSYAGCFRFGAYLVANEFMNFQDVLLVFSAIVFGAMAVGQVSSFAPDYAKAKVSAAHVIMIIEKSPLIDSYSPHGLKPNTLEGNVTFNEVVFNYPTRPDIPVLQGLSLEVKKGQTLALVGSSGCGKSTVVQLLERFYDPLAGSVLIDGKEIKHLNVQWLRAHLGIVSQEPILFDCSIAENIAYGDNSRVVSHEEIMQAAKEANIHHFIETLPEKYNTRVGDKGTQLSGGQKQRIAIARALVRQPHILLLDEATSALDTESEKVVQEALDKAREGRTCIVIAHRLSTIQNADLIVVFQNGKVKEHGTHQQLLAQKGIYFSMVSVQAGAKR
Description: (§1) Transport inhibition experiments were performed with 5 μM Rh123 as the probe substrate in stably transfected MDR1‐HEK293 cells. Cells were seeded onto polylysine‐coated 96‐well plates and gene expression was induced with tetracycline treatment at 1 μg/mL. […] Subsequently, the PBS was replaced with 80 μL of transport buffer again containing the respective inhibitor or solvent alone, and cells were further incubated for 60 min at 37°C for the efflux phase.
(§2) All graphs and diagrams were generated with GraphPad Prism 6 (GraphPad Software Inc., San Diego, CA, USA). The IC50 values were determined by nonlinear regression analysis using the equation log (inhibitor) versus response—variable slope settings. Statistical analyses were performed using GraphPad Prism 6. As detailed in the figure legends, either Student's t‐test or two‐way ANOVA was applied, as appropriate.

[2] = target: cat MDR1 wt (feline MDR1 carrier) (Felis catus, UniProt D2KKF0); assay: Rh123 efflux inhibition (IC50) in stably transfected MDR1-HEK293 cells, cat MDR1 wt; settings: IC50, inhibition of Rh123 efflux, 5 μM Rh123, HEK293 after tetracycline treatment, one value per independent experiment (two experiments)
Sequence of cat MDR1 wt (feline MDR1 carrier) (D2KKF0 entry or part of it): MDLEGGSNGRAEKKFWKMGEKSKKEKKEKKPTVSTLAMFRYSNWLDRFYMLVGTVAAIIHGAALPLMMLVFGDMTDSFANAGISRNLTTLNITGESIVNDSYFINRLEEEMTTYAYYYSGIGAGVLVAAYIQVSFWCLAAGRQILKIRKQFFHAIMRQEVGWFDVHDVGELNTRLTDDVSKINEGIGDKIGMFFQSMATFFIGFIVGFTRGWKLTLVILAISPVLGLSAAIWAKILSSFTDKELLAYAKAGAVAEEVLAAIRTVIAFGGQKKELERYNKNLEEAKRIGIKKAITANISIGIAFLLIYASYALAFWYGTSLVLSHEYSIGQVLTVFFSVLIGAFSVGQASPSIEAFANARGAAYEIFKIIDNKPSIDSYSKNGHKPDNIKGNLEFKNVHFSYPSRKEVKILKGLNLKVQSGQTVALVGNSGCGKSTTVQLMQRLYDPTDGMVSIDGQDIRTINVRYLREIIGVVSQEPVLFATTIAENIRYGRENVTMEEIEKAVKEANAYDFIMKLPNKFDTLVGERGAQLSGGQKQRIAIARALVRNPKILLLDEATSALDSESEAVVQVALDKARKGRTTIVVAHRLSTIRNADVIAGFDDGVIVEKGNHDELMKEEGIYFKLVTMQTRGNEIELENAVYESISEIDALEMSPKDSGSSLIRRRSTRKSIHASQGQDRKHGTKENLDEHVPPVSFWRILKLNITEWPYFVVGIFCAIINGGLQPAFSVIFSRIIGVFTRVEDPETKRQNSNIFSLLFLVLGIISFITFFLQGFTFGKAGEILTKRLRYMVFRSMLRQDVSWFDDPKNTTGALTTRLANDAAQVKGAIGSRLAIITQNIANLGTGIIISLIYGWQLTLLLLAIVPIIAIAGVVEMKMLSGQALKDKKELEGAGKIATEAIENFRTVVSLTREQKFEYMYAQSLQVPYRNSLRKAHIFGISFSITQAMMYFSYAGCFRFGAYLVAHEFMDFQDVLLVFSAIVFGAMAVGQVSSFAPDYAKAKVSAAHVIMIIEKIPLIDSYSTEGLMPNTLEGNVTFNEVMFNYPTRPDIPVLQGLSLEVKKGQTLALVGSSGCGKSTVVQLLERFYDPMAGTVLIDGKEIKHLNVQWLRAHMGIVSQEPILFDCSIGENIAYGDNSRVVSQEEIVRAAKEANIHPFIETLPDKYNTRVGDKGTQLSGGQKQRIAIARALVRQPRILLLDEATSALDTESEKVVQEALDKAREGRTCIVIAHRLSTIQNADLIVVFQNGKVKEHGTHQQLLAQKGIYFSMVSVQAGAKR
Description: as §1, §2

[3] = system: wild-type MDR1 (P-glycoprotein) of dog and cat; assay: Rh123 efflux inhibition in MDR1-HEK293 cells, stated for both wild-type MDR1 carriers together; settings: dog and cat, IC50 range, inhibition of both wild-type MDR1 carriers (dog and cat), 5 μM Rh123, HEK293, range over both species and experiments
Description: as §1, §2

[4] = system: wild-type MDR1 carriers of dog and cat; assay: as above; settings: analyzed inhibitor concentration range, highest 100 μM
Description: as §1, §2

[5] = system: dogs with homozygous MDR1 gene mutation; settings: cited from earlier work
MDR1 carrier = system: MDR1 carrier; parameters: method as in Lespine et al. [2007]; settings: membrane vesicles from DC-3F-/ADX MDR1-overexpressing cells; ref Lespine et al. [2007]; read-out: Ki, ATPase activity of the MDR1 carrier stimulated by verapamil; cited from earlier work
dog MDR1 wt = assay: Rh123 transport experiment in HEK293 cells with/without tariquidar, dog MDR1 wt; format: cell-based; settings: 1 μM TQD, 5 μM Rh123, HEK293
[6] = system: MDR1 carrier (parent MDCKII, dog MDR1 wt and cat MDR1 wt MDCKII^MDR1ko cells); assay: Transwell transport experiments in MDCKII cells with Rh123 and [3H]digoxin; format: cell-based; settings: 1 μM TQD
Description: For transwell transport experiments in the MDCKII cell lines, 3 × 10^5 cells were seeded per 12‐mm/0.4 μm transwell membrane inserts (Sarstedt, Numbrecht, Germany). One day after seeding, the medium was changed. The transport experiments were performed 72 h after seeding and after reaching 100% confluence. Measurement of the transepithelial electrical resistance (TEER) was conducted on each well with the Millicell ERS‐2 electrical resistance system (Millipore) to confirm the integrity of the monolayer. Only cell monolayers that reached > 150 Ω cm^2 were used for the transport experiments. […] Fluorescence of Rh123 was detected with the GloMax plate reader. […] The amount of [^3H]digoxin in the samples was quantified by Tri‐Carb 2910TR Liquid Scintillation Analyzer (Perkin Elmer).
For all transwell experiments with Rh123 and [^3H]digoxin as the substrates, apparent permeability coefficients (P app, cm/s) and the efflux ratios (ER) were calculated as follows: Papp=V/A×C0×dQ/dt where “V” is the volume of the receiver chamber (1.5 or 0.5 mL), “A” is the surface area of the transwell inserts (being 1.1 cm^2), “C 0” is the initial concentration of the compound, and “dQ/dt” is the transport rate.
From the P app values of the AB and BA transport experiments, the ER was calculated as follows: [drawing 1]

cat MDR1 wt = assay: Rh123 transport experiment in HEK293 cells with/without tariquidar, cat MDR1 wt; settings: 1 μM TQD, 5 μM Rh123, HEK293
Description: Cells were seeded onto polylysine‐coated 24‐well plates. Gene expression was induced with 1 μg/mL tetracycline treatment. Cells were grown to confluence over 72 h at 37°C. […] After 30 min pre‐incubation, transport experiments were started by replacing the medium with transport buffer additionally containing 5 μM Rh123. The Rh123 uptake was stopped after 90 min by two‐times washing with ice‐cold PBS. Subsequently, the PBS was again replaced with 250 μL of DMEM as the transport buffer, with or without TQD, and the efflux phase lasted over 60 min at 37°C. Then, experiments were stopped by two‐times washing with ice‐cold PBS. Finally, cells were lysed with 500 μL of 1 N NaOH with 0.1% SDS. Cell‐associated fluorescence of Rh123 was quantified by GloMax microplate reader (Promega). Fluorescence was detected at 490 nm excitation and 510–570 nm emission. […] The absolute fluorescence units per well were normalized to the protein amount and expressed as relative fluorescence units (RFU)/μg protein.

[7] = stably transfected MDR1-HEK293 cells (tetracycline-induced), probe rhodamine 123 (Rh123), 5 μM

**Q.** Which IC50 [1] does the source give for `C/C=C/C[C@@H](C)C(=O)[C@H]1C(=O)N[C@@H](C(C)C)C(=O)N(C)CC(=O)N(C)[C@@H](CC(C)C)C(=O)N[C@@H](C(C)C)C(=O)N(C)[C@@H](CC(C)C)C(=O)N[C@@H](C)C(=O)N[C@H](C)C(=O)N(C)[C@@H](CC(C)C)C(=O)N(C)[C@@H](CC(C)C)C(=O)N(C)[C@@H](C(C)C)C(=O)N1C` [PSC833, valspodar] here?
**A.** 0.66 µM and 0.95 µM

**Q.** What about the IC50 [2] of the same compound?
**A.** 1.5 µM

**Q.** And the IC50 at 60 min [3]?
**A.** 1 to 2 µM

**Q.** Which “Interaction with / inhibition of the MDR1 carriers from either species” value [4] does the source give for `O=C(CNC(=O)c1ccc(C2=NO[C@](c3cc(Cl)cc(C(F)(F)F)c3)(C(F)(F)F)C2)c2ccccc12)NCC(F)(F)F` [afoxolaner] here?
**A.** no detectable interaction; also recorded: no inhibition

**Q.** What about the “Safety of oral administration” value ([5]; dogs with homozygous MDR1 gene mutation, monotherapy or in combination with milbemycin oxime, ref Drag et al. [2022]) of the same compound?
**A.** safe

**Q.** Which “Outcome of off-label treatment” value ([5]; dogs with homozygous MDR1 mutation, 0.6 mg/kg subcutaneous injection, ref Mealey et al. [2001], Hopper et al. [2008], Geyer and Janko [2012]) does the source give for `CO[C@H]1C[C@H](O[C@H]2[C@H](C)O[C@@H](O[C@@H]3/C(C)=C/C[C@@H]4C[C@@H](C[C@]5(C=C[C@H](C)[C@@H](C6CCCCC6)O5)O4)OC(=O)[C@@H]4C=C(C)[C@@H](O)[C@H]5OC/C(=C\C=C\[C@@H]3C)[C@]54O)C[C@@H]2OC)O[C@@H](C)[C@@H]1O` [doramectin] here?
**A.** fatal cases of neurological toxicity

**Q.** Which “Inhibition of the canine MDR1 carrier” value ([1]; up to the maximum tested concentration of 100 μM) does the source give for `Cc1cc(C2=NO[C@](c3cc(Cl)cc(Cl)c3)(C(F)(F)F)C2)ccc1C(=O)NCC(=O)NCC(F)(F)F` [fluralaner] here?
**A.** did not inhibit

**Q.** And the IC50 [2]?
**A.** 69.9 µM and > 100 µM

**Q.** And the “Safety of oral administration” value ([5]; Collies with homozygous MDR1 gene mutation, ref Walther et al. [2014])?
**A.** treatment safety without neurological toxicity

**Q.** Which IC50 [1] does the source give for `Cc1cc(C2=NO[C@@](c3cc(Cl)c(Cl)c(Cl)c3)(C(F)(F)F)C2)sc1C(=O)NCC(=O)NCC(F)(F)F` [lotilaner] here?
**A.** 23.2 µM and 10.9 µM

**Q.** And the IC50 [2]?
**A.** 17.5 µM and 10.9 µM

**Q.** What about the IC50 at 60 min [3, 7] of the same compound?
**A.** 11 to 23 µM

**Q.** For `CO/N=C1\C[C@]2(C[C@@H]3C[C@@H](C/C=C(\C)C[C@@H](C)/C=C/C=C4\CO[C@@H]5[C@H](O)C(C)=C[C@@H](C(=O)O3)[C@]45O)O2)O[C@H](/C(C)=C/C(C)C)[C@H]1C` [moxidectin], which IC50 [1] is on record?
**A.** 21.2 µM and 15.2 µM

**Q.** And the IC50 [2]?
**A.** 9.2 µM and 8.4 µM

**Q.** And the IC50 at 60 min [3, 7]?
**A.** 8 to 21 µM

**Q.** For `CS(=O)(=O)CC(=O)N1CC2(C1)OCc1cc(C3=NO[C@@](c4cc(Cl)c(F)c(Cl)c4)(C(F)(F)F)C3)ccc12` [sarolaner], which IC50 [1] is on record?
**A.** 41.6 µM and 30 µM

**Q.** And the IC50 [2]?
**A.** 56.5 µM and 35.1 µM

**Q.** What about the IC50 at 60 min [3] of the same compound?
**A.** 30 to 57 µM

**Q.** With `CO[C@H]1C[C@H](O[C@@H]2/C(C)=C/C[C@@H]3C[C@@H](C[C@]4(CC[C@H](C)[C@@H](C5CCCCC5)O4)O3)OC(=O)[C@@H]3C=C(C)/C(=N/O)[C@H]4OC/C(=C\C=C\[C@@H]2C)[C@]43O)O[C@@H](C)[C@@H]1O` [selamectin] as the compound, how does the IC50 [1] read?
**A.** 21.5 µM and 15.7 µM

**Q.** And the IC50 [2]?
**A.** 14.3 µM and 10.3 µM

**Q.** And the IC50 at 60 min [3]?
**A.** 10 to 22 µM

**Q.** And the Ki (MDR1 carrier)?
**A.** 1 µM

**Q.** And the “Oral dose remaining without clinical symptoms of neurological toxicity” value ([5]; ivermectin-sensitive Collies, oral, ref Geyer and Janko [2012])?
**A.** exceeding 15 mg/kg

**Q.** For `COc1cc2c(cc1OC)CN(CCc1ccc(NC(=O)c3cc(OC)c(OC)cc3NC(=O)c3cnc4ccccc4c3)cc1)CC2` [tariquidar], which IC50 [1] is on record?
**A.** 0.06 µM and 0.12 µM

**Q.** What about the IC50 [2] of the same compound?
**A.** 0.14 µM and 0.23 µM

**Q.** And the IC50 at 60 min [3, 7]?
**A.** 0.1 to 0.2 µM

**Q.** What about the “Effect on Rh123 efflux activity of wild-type canine MDR1” value (dog MDR1 wt) of the same compound?
**A.** fully abolished

**Q.** And the “Effect on transcellular transport of [3H]digoxin” value ([6]; 1 μM [3H]digoxin, dog MDR1 wt and cat MDR1 wt cell lines)?
**A.** completely abolished

**Q.** And the “Effect on transcellular transport of Rh123” value ([6]; 5 μM Rh123, dog MDR1 wt and cat MDR1 wt cell lines)?
**A.** completely abolished

**Q.** What about the “Effect on Rh123 efflux activity of wild-type feline MDR1” value (cat MDR1 wt) of the same compound?
**A.** TQD‐sensitive reduction in Rh123 accumulation
